Laboratory results taken from PubChem BioAssay AID624474 (Sanford-Burnham Center for Chemical Genomics, 2012).

target: Protein skinhead-1 (Caenorhabditis elegans) (UniProt P34707); test: C. elegans SKN-1 blockade, concentration series – fluorescence ratio readout, dose response (AID 624474); conditions: SKN-1 inhibitor fluorescence ratio assay
Sequence (P34707 whole entry, looked up): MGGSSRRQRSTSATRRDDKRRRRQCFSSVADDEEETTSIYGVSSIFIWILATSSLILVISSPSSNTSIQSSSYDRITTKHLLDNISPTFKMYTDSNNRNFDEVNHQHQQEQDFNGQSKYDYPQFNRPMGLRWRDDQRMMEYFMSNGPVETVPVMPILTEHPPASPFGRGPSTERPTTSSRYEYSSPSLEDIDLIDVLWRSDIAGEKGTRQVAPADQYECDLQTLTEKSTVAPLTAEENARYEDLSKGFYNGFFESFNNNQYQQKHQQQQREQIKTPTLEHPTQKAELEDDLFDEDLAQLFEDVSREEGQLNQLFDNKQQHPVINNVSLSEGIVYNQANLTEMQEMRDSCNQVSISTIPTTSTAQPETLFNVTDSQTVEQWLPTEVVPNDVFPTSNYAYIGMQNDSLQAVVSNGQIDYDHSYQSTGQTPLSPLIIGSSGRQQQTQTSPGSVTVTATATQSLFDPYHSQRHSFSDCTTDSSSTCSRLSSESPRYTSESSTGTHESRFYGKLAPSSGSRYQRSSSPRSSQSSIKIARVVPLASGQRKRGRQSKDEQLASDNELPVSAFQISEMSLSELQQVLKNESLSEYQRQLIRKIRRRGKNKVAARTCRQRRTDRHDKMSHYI

Row | SMILES | IC50 [µM]
1 | Clc1ccc(Cn2cc(Br)cn2)cc1Cl | 30.6
2 | O=C(/C=C/c1ccc(Br)cc1)c1ccc(NC2=NCCCS2)cc1 | 9.41
3 | Brc1ccc(-c2nnc(-c3ccco3)o2)cc1 | 13.9
4 | COc1cc(CNC(C)(C)CO)cc(Br)c1OCc1ccc(Cl)cc1 | 19.5
